Measured values taken from patent US11208399B2, “NLRP3 inflammasome inhibitors” (Novartis AG, priority 2019, dated 2021).
Counter-ions that a name gives are not always drawn. Like-named read-outs stand apart in the source and are kept apart here.

Tests used:
NLRP3 inflammasome = test: IL-1β secretion assay in PMA-differentiated THP-1 cells, nigericin-activated (HTRF); assay type: cell-based
Method: 10 μL supernatant was removed, and IL-1p levels were monitored using an HTRF assay (CisBio, #621L1PEC) according to manufacturers' instructions. Viability and pyroptosis was monitored with the addition of PrestoBlue cell viability reagent (Life Technologies, #A13261) directly to the cell culture plate.
(§1) IC50 values were calculated from the plot of percentage of inhibition versus the inhibitor concentration by a logistics fit according to: y=A2+(A1−A2)/(1+(x/IC50)^p) where y is the %-inhibition at the inhibitor concentration, x. A1 is the lowest inhibition value, i.e. 0%, and A2 the maximum inhibition value, i.e. 100%. The exponent, p, is the Hill coefficient. The curve fitting was conducted with an internally developed software suite.
NLRP3-dependent IL-1β secretion was stimulated in PMA-differentiated THP-1 cells by the addition of nigericin, and cytokines were measured in the […] after 3 hours. As discussed above, activation of the NLRP3 inflammasome requires both an NF-kB-dependent priming step and the addition of a NLRP3 activator.

[1] = test system: NF-kB-dependent TNF-α secretion; test: TNF-α secretion assay in THP-1 cells (counter screen, HTRF); assay type: cell-based; settings: Pam3CSK4-stimulated, 3 hours
Method: Monocytic THP-1 cells were maintained according to providers' instructions in RPMI media as described above. […] Experimental compounds were prepared and added as described above. TNF-α secretion was triggered by the addition of either 1 μg/mL LPS (Sigma, #L4391) or 100 ng/mL Pam3CSK4 (Invivogen, #tlrl-pms) depending on the experiment, and cells were incubated for 3 hours. 10 μL supernatant was removed, and TNF-α levels were monitored using an HTRF assay (CisBio, #62TNFPEC) according to manufacturers' instructions. Viability was monitored as described above.
as §1, with “suite. […]” for “suite.”

[2] = Homo sapiens, 15 μM nigericin, 3 hours, read-out: IL-1β IC50

SMILES	IC50 (NLRP3 inflammasome; [2]) [nM]	IC50 ([1]; Homo sapiens) [nM]	IC50 (NLRP3 inflammasome; read-out: IL-1β IC50, 15 μM nigericin, 3 hours) [nM]	IC50 [1] [nM]
Cc1cc(C(F)(F)F)cc(O)c1-c1ccc(NC[C@H](O)C(C)C)nn1 [Ex 90b, (R)-2-(6-((2-Hydroxy-3-methylbutyl)amino)pyridazin-3-yl)-3-methyl-5-(trifluoromethyl) phenol]	115	> 100000	–	–
CC(C)(O)CNc1ccc(-c2c(O)cc(C(F)(F)F)cc2Cl)nn1 [Ex 30, 3-Chloro-2-(6-((2-hydroxy-2-methylpropyl)amino)pyridazin-3-yl)-5-(trifluoromethyl)phenol]	214	> 100000	–	–
Cc1cc(C)c(-c2ccc(NCCc3ccc(S(N)(=O)=O)cc3)nn2)c(O)c1 [Ex 103, 4-(2-((6-(2-Hydroxy-4,6-dimethylphenyl)pyridazin-3-yl)amino)ethyl)benzenesulfonamide]	136	16000	–	–
Cc1cc(N[C@H]2C[C@@](C)(O)C2)nnc1-c1ccc(Cl)cc1O [Ex 68, 5-Chloro-2-(6-(((cis)-3-hydroxy-3-methylcyclobutyl)amino)-4-methylpyridazin-3-yl)phenol]	89.3	> 100000	–	–
Cc1cc(C(F)(F)F)cc(O)c1-c1ccc(NC[C@H]2CCCN2)nn1 [Ex 14, (R)-3-Methyl-2-(6-((pyrrolidin-2-ylmethyl)amino)pyridazin-3-yl)-5-(trifluoromethyl)phenol]	85.7	> 100000	–	–
Cc1cc(C(F)(F)F)cc(O)c1-c1ccc(N[C@@H]2CC[C@@H]3CC[C@H]2N3CCO)nn1 [Ex 86b, 2-(6-(((1R,2R,5R)-8-(2-Hydroxyethyl)-8-azabicyclo[3.2.1]octan-2-yl)amino)pyridazin-3-yl)-3-methyl-5-(trifluoromethyl)phenol]	–	–	1.8	> 100000
Cc1cc(C(F)(F)F)cc(O)c1-c1ccc(NC[C@H]2CCCCN2CCO)nn1 [Ex 84a, (R)-2-(6-(((1-(2-Hydroxyethyl)piperidin-2-yl)methyl)amino)pyridazin-3-yl)-3-methyl-5-(trifluoromethyl)phenol]	42.5	> 100000	–	–
CCN1CCC[C@H]1CNc1ccc(-c2c(C)cc(C(F)(F)F)cc2O)nn1 [Ex 8, (S)-2-(6-(((1-Ethylpyrrolidin-2-yl)methyl)amino)pyridazin-3-yl)-3-methyl-5-(trifluoromethyl)phenol]	24.1	> 100000	–	–
Cc1cc(C(F)(F)F)cc(O)c1-c1cc(C(F)(F)F)c(NCCO)nn1 [Ex 26, 2-(6-((2-Hydroxyethyl)amino)-5-(trifluoromethyl)pyridazin-3-yl)-3-methyl-5-(trifluoromethyl)phenol]	165	> 100000	–	–
Cc1cc(N[C@H]2C[C@@](C)(O)C2)nnc1-c1ccc(C(F)(F)F)cc1O [Ex 55, 2-(6-(((cis)-3-Hydroxy-3-methylcyclobutyl)amino)-4-methylpyridazin-3-yl)-5-(trifluoromethyl)phenol]	45.8	45000	–	–
C[C@]1(O)C[C@@H](Nc2cc(C(F)(F)F)c(-c3ccc(C(F)(F)F)cc3O)nn2)C1 [Ex 66, 2-(6-(((cis)-3-Hydroxy-3-methylcyclobutyl)amino)-4-(trifluoromethyl)pyridazin-3-yl)-5-(trifluoromethyl)phenol]	187	> 33000	–	–
Cc1cc(C(F)(F)F)cc(O)c1-c1ccc(N[C@@H]2CCC[C@H]2O)nn1 (relative stereo) [Ex 24, (trans)-2-(6-((2-Hydroxycyclopentyl)amino)pyridazin-3-yl)-3-methyl-5-(trifluoromethyl)phenol]	120	37000	–	–
Cc1cc(C(F)(F)F)cc(O)c1-c1ccc(N[C@@H]2CCCN3CCC[C@H]23)nn1 [Ex 83a, 3-Methyl-2-(6-(((8R,8aR)-octahydroindolizin-8-yl)amino)pyridazin-3-yl)-5-(trifluoromethyl) phenol]	0.8	> 100000	–	–
Cc1cc(C(F)(F)F)cc(O)c1-c1ccc(Nc2cncnc2)nn1 [Ex 43, 3-Methyl-2-(6-(pyrimidin-5-ylamino)pyridazin-3-yl)-5-(trifluoromethyl)phenol]	281	25000	–	–
Cc1cc(C(F)(F)F)cc(O)c1-c1ccc(NC[C@@H]2C[C@H](F)CN2)nn1 [Ex 75, 2-(6-((((2S,4S)-4-Fluoropyrrolidin-2-yl)methyl)amino)pyridazin-3-yl)-3-methyl-5-(trifluoromethyl)phenol]	18.3	> 100000	–	–
Cc1cc(C(F)(F)F)cc(O)c1-c1ccc(N[C@H]2CCC[C@H](O)C2)nn1 [Ex 57, 2-(6-(((1S,3S)-3-Hydroxycyclohexyl)amino)pyridazin-3-yl)-3-methyl-5-(trifluoromethyl)phenol]	224	84000	–	–
Cc1cc(-c2c(C)cc(C(F)(F)F)cc2O)nnc1N[C@H]1C[C@@](C)(O)C1 [Ex 54, 2-(6-(((cis)-3-Hydroxy-3-methylcyclobutyl)amino)-5-methylpyridazin-3-yl)-3-methyl-5-(trifluoromethyl)phenol]	11.8	35000	–	–
Cc1cc(C(F)(F)F)cc(O)c1-c1ccc(NCC2(O)CCCC2)nn1 [Ex 98, 2-(6-(((1-Hydroxycyclopentyl)methyl)amino)pyridazin-3-yl)-3-methyl-5-(trifluoromethyl)phenol]	115	> 100000	–	–
Cc1cc(C(F)(F)F)cc(O)c1-c1ccc(NCC(C)(C)N(C)C)nn1 [Ex 16, 2-(6-((2-(Dimethylamino)-2-methylpropyl)amino)pyridazin-3-yl)-3-methyl-5-(trifluoromethyl)phenol]	36.3	> 100000	–	–
Cc1cc(C(F)(F)F)cc(O)c1-c1ccc(N[C@@H]2CC[C@@H](O)[C@H]2O)nn1 [Ex 89b, (1R,2S,3R)-3-((6-(2-Hydroxy-6-methyl-4-(trifluoromethyl)phenyl)pyridazin-3-yl)amino)cyclopentane-1,2-diol]	182	> 100000	–	–
Cc1cc(C(F)(F)F)cc(O)c1-c1ccc(NCC(O)(C(F)(F)F)C(F)(F)F)nn1 [Ex 10, 3-Methyl-2-(6-((3,3,3-trifluoro-2-hydroxy-2-(trifluoromethyl)propyl)amino)pyridazin-3-yl)-5-(trifluoromethyl)phenol]	349	> 33000	–	–
Cc1cc(-c2c(C)cc(C(F)(F)F)cc2O)nnc1N[C@@H]1CCC[N+](C)([O-])C1 (stereo partly drawn) [Ex 104, (3R)-3-((6-(2-Hydroxy-6-methyl-4-(trifluoromethyl)phenyl)-4-methylpyridazin-3-yl)amino)-1-methylpiperidine 1-oxide TFA-salt]	59	> 100000	–	–
Cc1cc(C(F)(F)F)cc(O)c1-c1ccc(NC[C@@H](F)C(C)(C)O)nn1 [Ex 60, (R)-2-(6-((2-Fluoro-3-hydroxy-3-methylbutyl)amino)pyridazin-3-yl)-3-methyl-5-(trifluoromethyl)phenol]	140	> 100000	–	–
Cc1cc(N[C@H]2C[C@@](C)(O)C2)nnc1-c1ccc(OC(F)(F)F)cc1O [Ex 81, 2-(6-(((cis)-3-Hydroxy-3-methylcyclobutyl)amino)-4-methylpyridazin-3-yl)-5-(trifluoromethoxy)phenol]	130	> 100000	–	–
Cc1cc(-c2c(C)cc(C(F)(F)F)cc2O)nnc1N[C@@H]1CCCN(C)C1=O [Ex 102, (R)-3-((6-(2-Hydroxy-6-methyl-4-(trifluoromethyl)phenyl)-4-methylpyridazin-3-yl)amino)-1-methylpiperidin-2-one]	49	–	–	–
Cc1cc(C(F)(F)F)cc(O)c1-c1ccc(N[C@H]2CCN(C)C2)nn1 [Ex 18, (S)-3-Methyl-2-(6-((1-methylpyrrolidin-3-yl)amino)pyridazin-3-yl)-5-(trifluoromethyl)phenol]	–	> 100000	–	–
Cc1cc(N[C@@H]2CCCN(C)C2)nnc1-c1ccc(Cl)cc1O [Ex 71, (R)-5-Chloro-2-(4-methyl-6-((1-methylpiperidin-3-yl)amino)pyridazin-3-yl)phenol]	–	> 100000	–	–
Cc1cc(C)c(-c2ccc(N[C@@H]3CCCN(C)C3)nn2)c(O)c1 [Ex 47, (R)-3,5-Dimethyl-2-(6-((1-methylpiperidin-3-yl)amino)pyridazin-3-yl)phenol]	–	> 100000	–	–
Cc1cc(-c2ccc(C(F)(F)F)cc2O)nnc1N[C@@H]1CCCN(C)C1 [Ex 65, (R)-2-(5-Methyl-6-((1-methylpiperidin-3-yl)amino)pyridazin-3-yl)-5-(trifluoromethyl)phenol]	–	> 33000	–	–
Cc1cc(C(F)(F)F)cc(O)c1-c1ccc(N[C@H]2CCCN[C@H]2C)nn1 [Ex 91a, 3-Methyl-2-(6-(((2S,3S)-2-methylpiperidin-3-yl)amino)pyridazin-3-yl)-5-(trifluoromethyl)phenol]	–	> 100000	–	–
